Drawing on patent publication EP4772514A1, “MACROCYCLIC COMPOUNDS, PREPARATION METHOD THEREFOR, AND USE THEREOF” (Genfleet Therapeutics (Shanghai) Inc., priority 2023, dated 2025), this text covers IC50 for 4 compounds.

The structures appear in SMILES notation.

What all share (assay type): cell-based
For assay [1], the system named is p-ERK. The assay can be described thus: Cell p-ERK assay (HTRF, Advance ERK phospho-T202/Y204 kit) in NCI-H441 cells. As to conditions: Homo sapiens, NCI-H441, 3 h, NCI-H441, human non-small cell lung cancer cell strain, KRAS G12V mutation; 3 h compound incubation. An outline of the steps: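 Cells with endogenous KRAS mutations, AsPC-1 (G12D) and NCI-H441 (G12V), were plated overnight and then exposed to compound for 3 h at 37 °C (final 0.1% DMSO, 10% FBS medium). ERK T202/Y204 phosphorylation in lysates was read by HTRF, and IC50 was derived from four-parameter curves of inhibition relative to DMSO and blank controls.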

In assay [2] the test system is p-ERK. Description: Cell p-ERK assay (HTRF, Advance ERK phospho-T202/Y204 kit) in AsPC-1 cells. The note with it: ASPC1; AsPC-1, human pancreatic cancer cell strain, KRAS G12D mutation; 3 h compound incubation. On the procedure:
AsPC-1 cells were purchased from ATCC, Cat. No. CRL-1682; NCI-H441 cells were purchased from ATCC, Cat. No. HTB-174; RPMI-1640 medium was purchased from Gibco, Cat. No. 11875-093; FBS was purchased from Gibco, Cat. No. 10099-141C; penicillin/streptomycin double-antibiotic solution (PS) was purchased from Gibco, Cat. No. 15140-122; trypsin (containing EDTA) was purchased from Gibco, Cat. No. 25200-072; DMSO was purchased from VWRAMRESCO, Cat. No. 0231-500ML; 96-well cell culture plates were purchased from Corning, Cat. No. 3599; white-bottomed, opaque 96-well plates were purchased from Cisbio, Cat. No. 66PL96025; Advance ERK phospho-T202/Y204 kit was purchased from Cisbio, Cat. No. 64AERPEH; cell counter was purchased from CHEMOMETEC, model: NC-200; microplate reader was purchased from PerkinElmer, model: EnVision.
AsPC-1, a human pancreatic cancer cell strain endogenously containing a KRAS^G12D mutation, was cultured in a complete medium containing RPMI-1640 + 10% FBS + 1% PS. NCI-H441, a human non-small cell lung cancer cell strain endogenously containing a KRAS^G12V mutation, was cultured in a complete medium containing RPMI-1640 + 10% FBS + 1% PS.
The cells were digested with trypsin (containing EDTA), collected in their corresponding complete media, and counted. The density of the cell suspensions was adjusted with their corresponding complete media, and AsPC-1 cells (10000 cells/well) or NCI-H441 cells (20000 cells/well) were seeded into a 96-well cell culture plate, with the volume of the medium in each well being 80 µL. The cell culture plate was incubated in an incubator at 37 °C with 5% CO2 overnight. A series of 3.16-fold gradient dilutions of a 1000× compound stock solution were prepared with DMSO, and then diluted 200-fold with the complete medium described above to give 5× compound stock solutions. On the day after cell seeding, 20 µL of the 5× compound stock solution was added to each cell culture well. As a result, the final concentration of the compound in the cell culture well became 1×, and the DMSO content in the well was 0.1%. In addition to the compound-treated wells described above, cell-containing DMSO control wells were also set. A complete medium containing 0.5% DMSO was added at 20 µL/well. After the mixture was well mixed, the culture plate was incubated in the incubator at 37 °C with 5% CO2 for another 3 h. The medium was then removed from the culture wells, and 50 µL of cell lysis buffer (from Advance ERK phospho-T202/Y204 kit) was added to each well. The mixture was well mixed, incubated for 30 min, and then transferred to a white-bottomed, opaque 96-well assay plate at 16 µL/well, and separately, 16 µL of cell lysis buffer was added to additional wells (serving as blank wells) in the assay plate. After the transfer was completed, 4 µL of p-ERK HTRF antibody mixture (from Advance ERK phospho-T202/Y204 kit) was added to each well of the assay plate, followed by a 4-hour incubation. The HTRF signal values (RLU) were then measured using a microplate reader, and the inhibition rate of the compound against p-ERK levels was calculated as follows: IR(%) = (RLUDMSO - RLUcompound)/(RLUDMSO - RLUblank) × 100%, where RLUDMSO is the average HTRF signal value from the DMSO control well samples, RLU is the average HTRF signal value from the blank well samples, and RLUcompound is the HTRF signal value from the compound-treated well samples. Using an XLfit software, the IR(%) values were plotted against the logarithm of the compound concentrations, and the dose-response curves were fitted using the four-parameter method to calculate the IC50 values.

The subject of the next assay is NCI-H441 cells. The assay can be described thus: 3D cell proliferation assay (CellTiter Glo-3D) in NCI-H441 cells. The note with it: Homo sapiens, NCI-H441, 120 h, NCI-H441, human lung cancer cell strain, KRAS G12V mutation; 3D culture, 2% FBS, 5 days; read-out: H441 AP IC50. An outline of the steps:
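After a 5-day exposure at 37 °C to 3.16-fold serial dilutions (final DMSO 0.1%) in 2% FBS RPMI-1640, ATP luminescence (CellTiter-Glo 3D) was read. Cells were AsPC-1 (KRAS G12D) or NCI-H441 (KRAS G12V), 800 per well; inhibition used DMSO and medium-only controls, with four-parameter curve fitting giving IC50.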
(ATP-based viability assays read luminescence as a measure of living cells.)

The subject of the next assay is AsPC-1 cells. Description: 3D cell proliferation assay (CellTiter Glo-3D) in AsPC-1 cells. The note with it: ASPC1, 120 h; AsPC-1, human pancreatic cancer cell strain, KRAS G12D mutation; 3D culture, 2% FBS, 5 days; read-out: AsPC-1 AP IC50. An excerpt:
MIA PaCa-2 cells were purchased from ATCC, Cat. No. CRL-1420; AsPC-1 cells were purchased from ATCC, Cat. No. CRL-1682; NCI-H441 cells were purchased from ATCC, Cat. No. HTB-174; NCI-H1975 cells were purchased from ATCC, Cat. No. CRL-5908; DMEM medium was purchased from Gibco, Cat. No. 11995-065; RPMI-1640 medium was purchased from Gibco, Cat. No. 11875-093; FBS was purchased from Gibco, Cat. No. 10099-141C; penicillin/streptomycin double-antibiotic solution (PS) was purchased from Gibco, Cat. No. 15140-122; Horse serum was purchased from Gibco, Cat. No. 16050130; trypsin (containing EDTA) was purchased from Gibco, Cat. No. 25200-072; DMSO was purchased from VWRAMRESCO, Cat. No. 0231-500ML; 384-well cell culture plates were purchased from Corning, Cat. No. 3830; white-bottomed, opaque 384-well assay plates were purchased from Corning, Cat. No. 3570; CellTiter Glo-3D kit was purchased from Promega, Cat. No. G9683; cell counter was purchased from CHEMOMETEC, model: NC-200; microplate reader was purchased from PerkinElmer, model: EnVision.
MIA PaCa-2, a human pancreatic cancer cell strain endogenously containing a KRAS^G12Cmutation, was cultured in a complete medium containing DMEM + 10% FBS + 2.5% Horse serum + 1% PS. AsPC-1, a human pancreatic cancer cell strain endogenously containing a KRAS^G12D mutation, was cultured in a complete medium containing RPMI-1640 + 10% FBS + 1% PS. NCI-H441 cells, a human lung cancer cell strain endogenously containing a KRAS^G12V mutation, were cultured in a complete medium containing RPMI-1640 + 10% FBS + 1% PS. NCI-H1975, a KRAS wild-type human lung cancer cell strain whose cell proliferation […], was cultured in a complete medium containing RPMI-1640 + 10% FBS + 1% PS.
The cells were digested with trypsin (containing EDTA), collected in their respective low-serum complete media containing 2% FBS (for MIA Paca-2 cell culture: DMEM + 2% FBS + 0.5% Horse serum + 1% PS), and counted. After the cell density was adjusted as required, MIA PaCa-2 cells (200 cells/well), AsPC-1 cells (800 cells/well), NCI-H441 cells (800 cells/well), or NCI-H1975 cells (400 cells/well) were seeded into a 384-well cell culture plate, with the volume of the medium in each well being 45 µL. The cell culture plate was incubated in an incubator at 37 °C with 5% CO2 overnight. A series of 3.16-fold gradient dilutions of a 1000× compound stock solution were prepared with DMSO, and then diluted 100-fold with the complete medium containing 2% FBS described above to give 10× compound stock solutions. On the day after cell seeding, 5 µL of the 10× compound stock solution was added to each cell culture well. As a result, the final concentration of the compound in the cell culture well became 1×, and the DMSO content in the well was 0.1%. In addition to the compound-treated wells described above, cell-containing DMSO control wells (with 5 µL of the complete medium containing 1% DMSO added to each well) and cell-free medium control wells (containing 50 µL of the complete medium with 2% FBS) were also set. The culture plate was incubated in an incubator at 37 °C with 5% CO2 for another 5 days, and then 30 µL of CellTiter-Glo working solution was added to each well. The mixture was well mixed, incubated for 30 min, left to stand at room temperature for 30 min, and then transferred to a white-bottomed, opaque 384-well assay plate at 40 µL/well. The chemiluminescence values (RLU) were measured using a microplate reader, and the cell proliferation inhibition rate for each well was calculated: IR(%) = (RLUDMSO - RLUcompound)/(RLUDMSO - RLUblank) × 100%, where RLUDMSO is the average RLU signal value from the DMSO control well samples, RLUblank is the average RLU signal value from the medium control well samples, and RLUcompound is the RLU signal value from the compound-treated well samples. […]

On to `CCn1cc2c(c1-c1cc(N3CCN(C)CC3)cnc1[C@H](C)OC)CC(C)(C)COC(=O)[C@@H]1CCCN(N1)C(=O)[C@@H](NC(=O)[C@H]1[C@H](C)[C@@H]1C)Cc1nc(cs1)/C=C/2` (atropisomer, axis not shown) [Compound Z8A, (1r,2S,3R)-N-((4^2Z,8^3R,2E,6R)-1^1-ethyl-1^5-(2-((S)-1-methoxyethyl)-5-(4-methylpiperazin-1-yl)pyridin-3-yl)-12,12-dimethyl-7,9-dioxo-8^1,8^2,8^3,8^4,8^5,8^6-hexahydro-1^1H-10-oxa-4(4,2)-thiazola-8(1,3)-pyridazina-1(3,4)-pyrrolacyclotridecaphan-2-en-6-yl)-2,3-dimethylcyclopropane-1-carboxamide], for which the IC50 (as a rule, the concentration that gives 50% inhibition) with p-ERK [1] was determined as 8.08 nM; in the assay on p-ERK [2] it was 8.19 nM; in the assay with NCI-H441 cells, 3.98 nM; in the assay with AsPC-1 cells, 3.71 nM.
On the same counts, the results for `CO[C@@H](C)c1ncc(C#CCN2CCS(=O)(=O)CC2)cc1-c1c2c(nn1C(C)C)/C=C/c1csc(n1)C[C@H](NC(=O)[C@H]1[C@H](C)[C@@H]1C)C(=O)N1CCC[C@H](N1)C(=O)OCC(C)(C)C2` (atropisomer, axis not shown) [Compound Z15A, (1r,2R,3S)-N-((4^2Z,8^3S,2E,6S)-1^5-(5-(3-(1,1-dioxidothiomorpholino)prop-1-yn-1-yl)-2-((S)-1-methoxyethyl)pyridin-3-yl)-1^1-isopropyl-12,12-dimethyl-7,9-dioxo-8^1,8^2,8^3,8^4,8^5 3^6-hexahydro-1^1H-10-oxa-4(4,2)-thiazola-8(1,3)-pyridazina-1(3,4)-pyrrolacyclotridecaphan-2-en-6-yl)-2,3-dimethylcyclopropane-1-carboxamide] are 7.99 nM, 30 nM, 7.63 nM and 22.7 nM.
`CCn1c(-c2cc(C#CCN3CCS(=O)(=O)CC3)cnc2[C@H](C)OC)c2c3cc(ccc31)NC(=O)OC[C@H](NC(=O)[C@H]1[C@H](C)[C@@H]1C)C(=O)N1CCC[C@H](N1)C(=O)OCC(C)(C)C2` (atropisomer, axis not shown; (Ra)) [Compound Z36, (1r,2R,3S)-N-((7^3S,9S)-1^2-(5-(3-(1,1-dioxidothiomorpholino)prop-1-yn-1-yl)-2-((S)-1-methoxyethyl)pyridin-3-yl)-1^1-ethyl-(Ra)-3,3-dimethyl-6,8,12-trioxo-7^1,7^2,7^3,7^4,7^5,7^6-hexahydro-1^1H-5,11-dioxa-13-aza-1(3,5)-indola-7(3,1)-pyridazinaocycloundecan-9-yl)-2,3-dimethylcyclopropane-1-carboxamide]: the IC50 with p-ERK [1] came to 40.4 nM; with p-ERK [2], 230 nM; with NCI-H441 cells, 40.6 nM; with AsPC-1 cells, 374 nM.
As for `CO[C@@H](C)c1ncc(C#CCN2CCS(=O)(=O)CC2)cc1-c1c2c(nn1C(C)C)/C=C/c1csc(n1)C[C@H](NC(=O)CC1CC(CO)C1)C(=O)N1CCC[C@H](N1)C(=O)OCC(C)(C)C2` (stereo partly drawn) [Compound Z39, N-((4^2Z,8^3S,2E,6S)-1^5-(5-(3-(1,1-dioxidothiomorpholino)prop-1-yn-1-yl)-2-((S)-1-methoxyethyl)pyridin-3-yl)-1^1-isopropyl-12,12-dimethyl-7,9-dioxo-8^1,8^2,8^3,8^4,8^5,8^6-hexahydro-1^1H-10-oxa-4(4,2)-thiazola-8(1,3)-pyridazina-1(3,4)-pyrrolacyclotridecaphan-2-en-6-yl)-2-(3-(hydroxymethyl)cyclobutyl)acetamide], the IC50 in the assay with p-ERK [1] turned out to be 177 nM; with p-ERK [2], 506 nM.
